We go through four compounds from publication PMC9048841 (Journal of medicinal chemistry, 2022).

*1 amine or outer side, *2 acyl side, *3 side chain or, on linkers, in order; H or OH if unused. Where a SMILES comes first, the peptide text is derived from it. [ ]: non-standard residue; d: D form. The star is where a group is joined. Phe(3,4-(OMe)2) = COc1ccc(C[C@H](N)C(=O)O)cc1OC; Lys(Et,iPr) = CCN(CCCC[C@H](N)C(=O)O)C(C)C; X2 = O=C(C(N[*:1])[C@@H](O)c1ccccc1)[*:2]; Lys(Et2) = CCN(CC)CCCC[C@H](N)C(=O)O; Lys(Me2) = CN(C)CCCC[C@H](N)C(=O)O; X1 = O=C(c1ccoc1)*

The target of assay [1] is CBX5 chromodomain (wild type) (Homo sapiens, UniProt P45973). Briefly: ITC binding to wild-type CBX5 chromodomain. Conditions: for fold tighter binding of CBX5 than to UNC6212 (Kme2): wild-type CBX5, relative to UNC6212.
The target of assay [2] is H3K9me3 peptide (Homo sapiens) (UniProt P68431). To be noted: cited from earlier work.

`COc1ccc(C[C@H](NC(=O)[C@H](C)NC(=O)C(NC(=O)c2ccoc2)[C@@H](O)c2ccccc2)C(=O)N[C@@H](CCCCN(C)C)C(=O)N[C@@H](CO)C(N)=O)cc1OC` (stereo partly drawn) [UNC6212, N-((7S,10S,13S,17S)-7-(((S)-1-amino-3-hydroxy-1-oxopropan-2-yl)carbamoyl)-10-(3,4-dimethoxybenzyl)-17-hydroxy-2,13-dimethyl-9,12,15-trioxo-17-phenyl-2,8,11,14-tetraazaheptadecan-16-yl)furan-3-carboxamide] (X1-[X2]A[Phe(3,4-(OMe)2)][Lys(Me2)]S-NH2) displayed a Kd in assay [1] of 5.7 µM. In addition, the “fold tighter binding than HP1 with H3K9me3” value in assay [1] (CBX5 with UNC6212 vs HP1 with H3K9me3) is reported as “about 2.5 fold”. Besides, the “fold more potent than histone tail peptides H3K9me3 and H3K9me2” value in assay [1] (KD for CBX5, ligand vs H3K9me3 and H3K9me2) is given as “about 5 fold”.
With `CCN(CC)CCCC[C@H](NC(=O)[C@H](Cc1ccc(OC)c(OC)c1)NC(=O)[C@H](C)NC(=O)C(NC(=O)c1ccoc1)[C@@H](O)c1ccccc1)C(=O)N[C@@H](CO)C(N)=O` (stereo partly drawn) [UNC6349, N-((8S,11S,14S,18S)-8-(((S)-1-amino-3-hydroxy-1-oxopropan-2-yl)carbamoyl)-11-(3,4-dimethoxybenzyl)-3-ethyl-18-hydroxy-14-methyl-10,13,16-trioxo-18-phenyl-3,9,12,15-tetraazaoctadecan-17-yl)furan-3-carboxamide] (X1-[X2]A[Phe(3,4-(OMe)2)][Lys(Et2)]S-NH2), the “fold tighter binding of CBX5 than to UNC6212 (Kme2)” value in assay [1] was “about 2 fold”.
As to `CCN(CCCC[C@H](NC(=O)[C@H](Cc1ccc(OC)c(OC)c1)NC(=O)[C@H](C)NC(=O)C(NC(=O)c1ccoc1)[C@@H](O)c1ccccc1)C(=O)N[C@@H](CO)C(N)=O)C(C)C` (stereo partly drawn) [UNC6864, N-((8S,11S,14S,18S)-8-(((S)-1-amino-3-hydroxy-1-oxopropan-2-yl)carbamoyl)-11-(3,4-dimethoxybenzyl)-3-ethyl-18-hydroxy-2,14-dimethyl-10,13,16-trioxo-18-phenyl-3,9,12,15-tetraazaoctadecan-17-yl)furan-3-carboxamide] (X1-[X2]A[Phe(3,4-(OMe)2)][Lys(Et,iPr)]S-NH2), in assay [1], the Kd is 3.3 µM and the “fold tighter binding of CBX5 than to UNC6212 (Kme2)” value is “about 2 fold”.
In the case of CBX5 (from UniProt P45973), in assay [2], the dissociation constant (Kd) was 30 µM.
